Data published in US20230257351A1, “SUBSTITUTED N-[…] HAVING P2X4 RECEPTOR ANTAGONISTIC ACTIVITY” (Bayer Aktiengesellschaft, priority 2020, published 2023).

Target: T1, human P2X4 (Homo sapiens, UniProt Q99571)
T1 construct: expressed in transfected cells
T1 sequence (Q99571 1-388): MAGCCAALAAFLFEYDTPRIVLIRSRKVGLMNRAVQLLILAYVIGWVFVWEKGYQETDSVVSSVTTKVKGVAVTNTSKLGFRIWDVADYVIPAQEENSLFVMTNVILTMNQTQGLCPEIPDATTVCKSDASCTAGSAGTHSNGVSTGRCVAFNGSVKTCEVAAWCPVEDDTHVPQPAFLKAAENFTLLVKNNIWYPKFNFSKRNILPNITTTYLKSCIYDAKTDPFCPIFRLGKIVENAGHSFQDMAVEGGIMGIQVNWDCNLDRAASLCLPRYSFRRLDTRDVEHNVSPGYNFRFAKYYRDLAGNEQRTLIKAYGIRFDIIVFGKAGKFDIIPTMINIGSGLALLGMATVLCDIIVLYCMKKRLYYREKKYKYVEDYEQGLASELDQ
Test: Human P2X4 HEK Cell FLIPR Assay
Format: cell-based
Conditions: HEK293 stably expressing human P2X4, agonist Bz-ATP 3 μM (EC80)
In short: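 Compounds were preincubated 30 min at room temperature on Fluo8-AM-loaded HEK293 cells stably expressing human P2X4. The response was the calcium fluorescence rise on Bz-ATP addition.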

CC(=O)N(c1ccc(F)c(F)c1)c1cc(NC(=O)Cc2ccc(F)cc2Cl)ccn1 [Example 68, N-{4-[2-(2-chloro-4-fluorophenyl)acetamido]pyridin-2-yl}-N-(3,4-difluorophenyl)acetamide]
Human P2X4 HEK Cells (FLIPR Assay) avg Efficacy: 95%
IC50 (read-out: Human P2X4 HEK Cells (FLIPR Assay) avg IC50): 0.411 µM
